biological target: T1, human Arginine Vasopressin Receptor 1a (AVPR1a) (Homo sapiens, UniProt P37288); test: Vasopressin V1a receptor antagonist assay (FLIPR calcium, CHO-AVPR1a cells); format: cell-based
T1 construct: expressed in transfected cells; host or cells: CHO (CHO-AVPR1a, kept under G418 selection)
Method: The purpose of this assay was to determine the inhibitory effect of synthesized compounds on the Vasopressin V1a receptor. The assay was performed in Chinese Hamster Ovary (CHO) cells expressing the human Arginine Vasopressin Receptor 1a (AVPR1a). Arginine Vasopressin (AVP) evokes an increase in intracellular calcium in CHO-AVPR1a cells which is measured in a fluorescence assay on the FLIPR^TETRA using calcium sensitive dyes. Test compounds were assessed for their ability to affect the magnitude of the response to AVP, with antagonists showing a concentration-dependent reduction in the AVP-mediated fluorescence. Compounds were tested in duplicate in a 10-point, 1:3 dilution series starting at a nominal concentration of 3 μM in the assay.
CHO-AVPR1a cells were maintained in routine culture in T175 Flasks at 37° C., 5% CO2. The growth medium consists of Ham's F12 media supplemented with 10% v/v fetal bovine serum, 1× non-essential amino acids, and 0.4 mg/ml Geneticin G418.
On day one, cells were harvested from T175 flasks when they are 80-90% confluent by first washing the cell monolayer with PBS and then dissociated using trypsin 0.05%/EDTA (3 mL for a T175 Flask). The flasks were incubated at room temperature until the cells detached. To the cell suspension, 10 ml of growth media was added and the cell density determined using the Vi-Cell automated cell counter. The cells were spun at 1000 rpm for 3 minutes, then the supernatant was carefully removed and discarded. The cell pellet was re-suspended at 6.0e^5 cells/ml in growth media. 25 μL of cells in growth media was dispensed into each well (15,000 cells per well) of a poly-D-lysine coated black, clear bottomed, 384-well plate. The plates were incubated at 37° C., 5% CO2 overnight.
At the start of each assay day, the potency of AVP was assessed and an EC80 concentration determined for subsequent compound profiling. Assays were performed using a two-step addition protocol on the FLIPR^TETRA; first addition of 5 μl of control or test compound at 10× final in assay buffer with 15 min incubation at 37° C., 5% CO2 followed by 10 μl of AVP at 6× final concentration in assay buffer. Changes in fluorescence were monitored for 3 min after both additions on the FLIPR^TETRA using 470-495 nm excitation and 515-575 nm emission wavelengths. The assay buffer consisted of HBSS (+Ca/+Mg) supplemented with 20 mM HEPES, and for the preparation of the AVP agonist only, 0.1% w/v bovine serum albumin. The assay was initiated by the removal of growth media from the cells and replacement with 45 μl of Calcium-6 dye (Molecular Devices) prepared at 1× in assay buffer. Cells were loaded with dye for 60-90 min at 37° C., 5% CO2 before initiation of the FLIPR^TETRA protocol. […] For compound profiling, test compounds were first serially diluted in DMSO (10-point curve, 1:3 dilutions) then diluted 33.3-fold in assay buffer prior to addition to the dye loaded cells on the FLIPR^TETRA. At the end of the incubation period, 10 μl of AVP in assay buffer containing 0.1% BSA was added at the previously determined EC80 concentration.
In-plate controls for the assay included balovaptan and PF-184563 concentration-response curves as reference V1a antagonists, and an AVP concentration-response curve to confirm the reproducibility of the EC80 used for the compound challenge.

T1 sequence (P37288 whole entry): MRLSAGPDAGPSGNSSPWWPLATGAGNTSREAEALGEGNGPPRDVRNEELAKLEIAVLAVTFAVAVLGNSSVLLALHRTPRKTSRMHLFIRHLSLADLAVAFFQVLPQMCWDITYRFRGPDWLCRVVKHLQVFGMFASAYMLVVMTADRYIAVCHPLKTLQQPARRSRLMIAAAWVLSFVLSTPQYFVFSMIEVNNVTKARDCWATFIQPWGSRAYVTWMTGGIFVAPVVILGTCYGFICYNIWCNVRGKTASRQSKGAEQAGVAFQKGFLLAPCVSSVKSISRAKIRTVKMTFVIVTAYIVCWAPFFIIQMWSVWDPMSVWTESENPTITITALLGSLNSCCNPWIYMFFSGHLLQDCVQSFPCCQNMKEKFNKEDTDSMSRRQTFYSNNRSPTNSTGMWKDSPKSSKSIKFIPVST

Row | IC50 [µM] | Structure (SMILES)
1 | 0.1 to 0.5 | COc1ccc(N2CC3(CN(C(=O)N4CCOc5cc(Cl)ccc54)C3)C2)nn1 [1-27]
2 | 0.5 to 1 | N#Cc1cnc(N2CC3(CN(C(=O)N4CCOc5cc(Cl)ccc54)C3)C2)cn1 [1-24]
3 | < 0.1 | Cc1cc(N2CC3(CN(C(=O)N4CCOc5cc(Cl)ccc54)C3)C2)ncc1C#N [1-29]
4 | 0.1 to 0.5 | O=C(N1CC2(C1)CN(c1cccc(CO)n1)C2)N1CCOc2cc(Cl)ccc21 [1-32]
5 | ≥ 1 | O=C(N1CC2(CN(Cc3cccnc3)C2)C1)N1CCOc2cc(Cl)ccc21 [2-3]
6 | 0.1 to 0.5 | Cn1ccnc1N1CC2(CN(C(=O)N3CCOc4cc(Cl)ccc43)C2)C1 [1-54]
7 | 0.1 to 0.5 | COc1cnc(N2CC3(CN(C(=O)N4CCOc5cc(Cl)ccc54)C3)C2)nc1 [1-48]
8 | < 0.1 | Cc1ccc(N2CC3(CN(C(=O)N4CCOc5cc(Cl)ccc54)C3)C2)nc1F [1-46]
9 | 0.1 to 0.5 | Cc1ccc(N2CC3(CN(C(=O)N4CCOc5cc(Cl)ccc54)C3)C2)nn1 [1-26]
10 | < 0.1 | COc1ccnc(N2CC3(CN(C(=O)N4CCOc5cc(Cl)ccc54)C3)C2)n1 [1-47]
11 | 0.1 to 0.5 | Cc1cnc(N2CC3(CN(C(=O)N4CCOc5cc(Cl)ccc54)C3)C2)nc1 [1-37]
12 | ≥ 1 | O=C(N1CC2(CN(Cc3ccncc3)C2)C1)N1CCOc2cc(Cl)ccc21 [2-1, (7-chloro-2,3-dihydro-4H-benzo[b][1,4]oxazin-4-yl)(6-(pyridin-4-ylmethyl)-2,6-diazaspiro[3.3]heptan-2-yl)methanone]
13 | < 0.1 | O=C(N1CC2(C1)CN(c1ccc(F)cn1)C2)N1CCOc2c1ccc(F)c2F [9-5]
14 | < 0.1 | O=C(N1CC2(C1)CN(c1nccnc1F)C2)N1CCOc2cc(Cl)ccc21 [1-33]
15 | ≥ 1 | CS(=O)(=O)N1CC2(CN(C(=O)N3CCOc4cc(Cl)ccc43)C2)C1 [10-1, (7-chloro-2,3-dihydro-4H-benzo[b][1,4]oxazin-4-yl)(6-(methylsulfonyl)-2,6-diazaspiro[3.3]heptan-2-yl)methanone]
16 | ≥ 1 | O=C(N1CC2(C1)CN(c1ccc(F)cn1)C2)N1CCOc2ncccc21 [8-5]
17 | < 0.1 | COc1cnc(N2CC3(CN(C(=O)N4CCOc5cc(Cl)ccc54)C3)C2)cn1 [1-23]

The next lines start with the molecule.

Row | Structure (SMILES) | IC50 [µM]
18 | Cc1nccnc1N1CC2(CN(C(=O)N3c4ccc(Cl)cc4OCC3C)C2)C1 (single isomer, unassigned) [20-10-B] | ≥ 1
19 | CC1COc2cc(Cl)ccc2N1C(=O)N1CC2(C1)CN(c1cc(=O)n(C)cn1)C2 (single isomer, unassigned) [20-14-A] | ≥ 1
20 | CC1COc2cc(F)ccc2N1C(=O)N1CC2(C1)CN(c1ncc(F)cn1)C2 (single isomer, unassigned) [18-4-A] | ≥ 1
21 | CC1COc2cc(Cl)c(F)cc2N1C(=O)N1CC2(C1)CN(c1ncccn1)C2 (single isomer, unassigned) [19-2-A] | 0.1 to 0.5
22 | CC1COc2cc(Cl)ccc2N1C(=O)N1CC2(C1)CN(c1ncc(F)cn1)C2 (single isomer, unassigned) [18-2-A] | < 0.1
23 | CC1CN(C(=O)N2CC3(C2)CN(c2ccc(F)cn2)C3)c2ccc(F)cc2O1 (single isomer, unassigned) [9-4-A] | 0.1 to 0.5
24 | CC1COc2cc(F)c(F)cc2N1C(=O)N1CC2(C1)CN(c1ncccn1)C2 (single isomer, unassigned) [19-1-A] | ≥ 1
25 | CC1COc2cc(F)ccc2N1C(=O)N1CC2(C1)CN(c1noc3ccccc13)C2 (single isomer, unassigned) [4-3-A] | 0.1 to 0.5
26 | CC1COc2cc(F)ccc2N1C(=O)N1CC2(C1)CN(c1ccccn1)C2 (single isomer, unassigned) [1-66-A] | ≥ 1
27 | CC1COc2cc(Cl)ccc2N1C(=O)N1CC2(C1)CN(c1noc3cccnc13)C2 (single isomer, unassigned) [18-3-A] | ≥ 1
28 | O=C(N1CC2(C1)CN(c1ccc(F)cn1)C2)N1CCC(O)c2c1ccc(Cl)c2F (single isomer, unassigned) [13-5-B] | < 0.1
29 | COc1ccc2c(c1)OCC(C)N2C(=O)N1CC2(C1)CN(c1ccc(F)cn1)C2 (single isomer, unassigned) [1-59-A] | ≥ 1

Source: US12152038B2, “Vasopressin receptor antagonists and products and methods related thereto” (Neumora Therapeutics, Inc., priority 2017, dated 2024)
